# What was measured:
# Assay in all cases: relative viability (nuclei count vs DMSO), 5 days (fraction); higher = more cells survive
# [1] = compound: CC[C@@H]1C(=O)N(C)c2cnc(Nc3ccc(C(=O)NC4CCN(C)CC4)cc3OC)nc2N1C1CCCC1 [BI-2536] + C[C@@H](Oc1cc(-c2cnn(C3CCNCC3)c2)cnc1N)c1c(Cl)ccc(F)c1Cl [Crizotinib] (partner 1 µM)
# Method in brief: (§1)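 Five library-drug doses in √10 steps were combined with a fixed anchor-drug dose, or a single drug was given alone, by pin tool to lung cancer cell lines in 1536-well plates the day after seeding. Nuclei were stained and counted after 5 days. Relative viability is the nuclei count in treated wells over that in vehicle wells, taken as the median of duplicate plates.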
# [2] = compound: CC1CC(=O)N(C2=CN=C(N=C2N1C3CCCC3)NC4=C(C=C(C=C4)C(=O)NC5CCN(CC5)C)OC)C [NPK76-II-72-1] + O=C(c1cc(Cc2n[nH]c(=O)c3ccccc23)ccc1F)N1CCN(C(=O)C2CC2)CC1 [Olaparib] (partner 8 µM)
# Method in brief: as §1
# [3] = compound: CC[C@@H]1C(=O)N(C)c2cnc(Nc3ccc(C(=O)NC4CCN(C)CC4)cc3OC)nc2N1C1CCCC1 [BI-2536] + CC(=O)Nc1cccc(-n2c(=O)n(C3CC3)c(=O)c3c(Nc4ccc(I)cc4F)n(C)c(=O)c(C)c32)c1 [Trametinib] (partner 0.02 µM)
# Method in brief: as §1
# [4] = compound: CC[C@@H]1C(=O)N(C)c2cnc(Nc3ccc(C(=O)NC4CCN(C)CC4)cc3OC)nc2N1C1CCCC1 [BI-2536] + COc1cccc2cc(-c3nc([C@H]4CC[C@H](C(=O)O)CC4)n4ncnc(N)c34)[nH]c12 [OSI-027] (partner 0.5 µM)
# Method in brief: as §1
Cell Line,relative viability ([1]; first compound 0.01 µM),relative viability ([1]; first compound 0.03162 µM),relative viability ([1]; first compound 0.1 µM),relative viability ([1]; first compound 0.3162 µM),relative viability ([1]; first compound 1 µM),relative viability ([2]; first compound 0.01 µM),relative viability ([2]; first compound 0.03162 µM),relative viability ([2]; first compound 0.1 µM),relative viability ([2]; first compound 0.3162 µM),relative viability ([2]; first compound 1 µM),relative viability ([3]; first compound 0.01 µM),relative viability ([3]; first compound 0.03162 µM),relative viability ([3]; first compound 0.1 µM),relative viability ([3]; first compound 0.3162 µM),relative viability ([3]; first compound 1 µM),relative viability ([4]; first compound 0.01 µM),relative viability ([4]; first compound 0.03162 µM),relative viability ([4]; first compound 0.1 µM),relative viability ([4]; first compound 0.3162 µM),relative viability ([4]; first compound 1 µM)
HCC-15,0.82,0.64,0.426,0.134,0.118,0.679,0.766,0.639,0.689,0.741,0.389,0.319,0.364,0.128,0.125,0.723,0.699,0.218,0.102,0.122
HCC-44,0.786,0.703,0.444,0.139,0.0857,0.955,1,0.946,0.935,0.989,1.04,1.04,1.03,0.323,0.275,0.483,0.527,0.13,0.135,0.12
COR-L23,0.684,0.566,0.226,0.11,0.0912,0.321,0.38,0.34,0.335,0.396,0.579,0.582,0.394,0.0573,0.0949,0.864,0.484,0.216,0.107,0.139
HCC-78,0.368,0.288,0.347,0.18,0.159,0.86,0.872,0.476,0.869,0.85,0.829,0.837,0.814,0.562,0.246,0.376,0.359,0.317,0.363,0.198
NCI-H727,0.939,0.7,0.364,0.331,0.295,0.957,0.774,0.655,0.699,0.679,0.366,0.364,0.379,0.362,0.332,0.597,0.471,0.499,0.334,0.338
NCI-H2087,0.892,0.771,0.518,0.169,0.139,0.532,0.653,0.548,0.672,0.626,0.18,0.183,0.147,0.0838,0.0815,0.564,0.541,0.186,0.101,0.0808
BEN,0.849,0.6,0.556,0.243,0.216,1.01,1.14,1.04,1.03,1,1.05,0.813,0.959,0.515,0.435,0.312,0.261,0.272,0.233,0.169
LCLC-103H,1.11,0.986,1.08,0.39,0.154,,0.744,0.74,0.796,0.759,0.671,0.711,0.69,0.336,0.277,0.462,0.466,0.485,0.215,0.155
EKVX,1.01,0.745,1.07,0.217,0.147,0.755,0.898,0.735,,1.02,0.313,0.343,0.379,0.155,0.151,0.717,0.731,0.66,0.258,0.149
LXF-289,0.822,0.693,0.456,0.0566,0.0678,0.966,1.07,1.05,1.04,1.07,0.68,0.654,0.64,0.12,0.102,0.844,0.687,0.181,0.0418,0.0509
NCI-H650,0.597,0.347,0.271,0.21,0.17,0.391,0.316,0.397,0.354,0.489,0.847,0.956,0.858,0.152,0.16,0.551,0.471,0.351,0.19,0.144
NCI-H1650,0.948,0.742,0.208,0.143,0.11,0.661,0.751,0.721,0.82,0.784,0.674,0.497,0.456,0.136,0.136,0.636,0.564,0.169,0.18,0.159
NCI-H2085,0.895,0.751,0.578,0.254,0.307,0.718,0.77,0.783,0.726,0.83,0.523,0.52,0.439,0.144,0.177,0.833,0.602,0.282,0.153,0.272
LC-2-ad,0.41,0.272,0.205,0.217,0.286,0.673,0.72,0.702,0.704,0.683,0.913,0.803,0.672,0.224,0.239,0.903,0.743,0.247,0.283,0.33
COR-L 105,0.798,0.611,0.394,0.288,0.264,0.586,0.795,0.46,0.683,0.794,0.463,0.454,0.394,0.267,0.297,0.69,0.596,0.35,0.254,0.214
NCI-H1355,1.06,1.1,0.796,0.198,0.184,0.682,0.755,0.7,0.692,0.841,0.428,0.47,0.46,0.176,0.174,0.421,0.389,0.206,0.176,0.189

# Source: the supplement of paper PMC10307832
